Structure (SMILES) | logP
CC(=O)c1cccc(Br)c1 | 2.58
O=[N+]([O-])c1cccc(F)c1 | 2.02
CC(=O)c1ccc(Br)cc1 | 2.57
O=[N+]([O-])c1cc(F)ccc1F | 1.86
Oc1ccc2cc(O)ccc2c1 | 1.9
O=Cc1cccc(Cl)c1 | 2.26
O=[N+]([O-])c1ccccc1F | 1.84
Oc1cc2ccccc2cc1O | 2.24
CC(=O)c1cccc(Cl)c1 | 2.43
Cc1cc2ccccc2o1 | 3.22
Oc1cccc2c(O)cccc12 | 2.19
CCCc1ccccc1O | 2.93
CC(O)c1ccc2ccccc2c1 (configuration not stated) | 2.68
OC1CCCc2ccccc21 (configuration not stated) | 1.98
CC(=O)c1ccccc1Br | 2.28
O=[N+]([O-])c1cc(F)cc(F)c1 | 2.03
O=[N+]([O-])c1ccc(F)cc1 | 1.89
Oc1ccc2c(c1)CCCC2 | 2.9
OCc1cccc2ccccc12 | 2.37
OCC1c2ccccc2-c2ccccc21 | 2.89
O=Cc1ccccc1Cl | 2.28
O=C(CBr)c1ccccc1 | 2.19
